PubChem BioAssay (NCI)
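Compound exposure: 48 hours, 5 concentrations, 96-well plates. GI50 is the concentration that inhibits growth by half. The concentration for full growth arrest is given as TGI.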

Columns and labels:
Experiment in all cases: growth of human tumour cells (NCI), 48 h
[1] = tested on: A549 NSCLC
[2] = tested on: CAKI-1 renal
[3] = tested on: K-562 leukemia
[4] = tested on: KM20L2 colon
[5] = tested on: NCI-H226 lung
[6] = tested on: SK-MEL-5 melanoma
[7] = tested on: SK-OV-3 ovarian
[8] = tested on: TK-10 renal
[9] = tested on: UO-31 renal
[10] = tested on: XF 498 CNS
[11] = tested on: MDA-MB-435

Structure (SMILES) | TGI [1] | TGI [2] | TGI [3] | TGI [4] | TGI [5] | TGI [6] | TGI [7] | TGI [8] | TGI [9] | TGI [10] | TGI [11] | GI50 [1] | GI50 [2] | GI50 [3] | GI50 [11] | GI50 [5] | GI50 [6] | GI50 [7] | GI50 [8] | GI50 [9]
NCc1cccc(O)c1O | > 100 µM | > 100 µM | > 100 µM | > 100 µM | > 100 µM | > 100 µM | > 100 µM | > 100 µM | > 100 µM | > 100 µM | – | – | – | – | – | – | – | – | – | –
O=C(N/N=C/C=C/c1ccccc1)c1ccccc1Nc1ccccc1C(=O)N/N=C/C=C/c1ccccc1 | > 100 µM | > 100 µM | > 100 µM | – | > 100 µM | > 100 µM | > 100 µM | > 100 µM | > 100 µM | – | > 100 µM | – | – | – | – | – | – | – | – | –
CN(C)CCCNc1ccc2nnn3c4ccc(O)cc4c(=O)c1c23 | 16.9 µM | 13.1 µM | > 57.2 µM | 17.1 µM | 17.3 µM | 19.7 µM | 23.4 µM | 19.4 µM | 9.79 µM | – | 20.9 µM | – | – | – | – | – | – | – | – | –
O=c1[nH]n(Cc2ccccc2)c2ccc([N+](=O)[O-])cc12 | > 100 µM | > 100 µM | > 100 µM | – | > 100 µM | > 100 µM | > 100 µM | > 100 µM | > 100 µM | – | 85.3 µM | – | – | – | – | – | – | – | – | –
CN=C(/N=c1\ssc(=NC)n1C)N(C)C | > 100 µM | > 100 µM | > 100 µM | > 100 µM | > 100 µM | > 100 µM | > 100 µM | > 100 µM | > 100 µM | > 100 µM | – | – | – | – | – | – | – | – | – | –
Cc1c(C(=O)OCc2ccccc2)[n+](=O)c2cc(Cl)c(Cl)cc2n1[O-] | 28 µM | 28.2 µM | 57.6 µM | – | 20.1 µM | 28.2 µM | 60 µM | 40.3 µM | 32 µM | – | 42.4 µM | – | – | – | – | – | – | – | – | –
COc1cc(C2c3cc4c(cc3C3OC[C@@H]2C3CO)OCO4)cc(OC)c1OC (stereo partly specified) | > 100 µM | > 100 µM | > 100 µM | – | 47 µM | 27.9 µM | > 100 µM | > 100 µM | > 100 µM | – | 51.1 µM | – | – | – | – | – | – | – | – | –
CC1(C)CC(=O)C2(CC(CSc3ccccc3)C(CS(=O)(=O)c3ccccc3)C2)C(=O)C1 (stereo unspecified) | > 100 µM | > 100 µM | > 100 µM | – | > 100 µM | > 100 µM | > 100 µM | > 100 µM | > 100 µM | – | > 100 µM | – | – | – | – | – | – | – | – | –
CCCCCCCCCCCCCCCCCCNc1nc(=O)n(C2CC(O)C(COP(=O)(O)O)O2)cc1F (stereo unspecified) | > 100 µM | > 100 µM | > 100 µM | – | > 100 µM | > 100 µM | > 100 µM | > 100 µM | > 100 µM | – | > 100 µM | – | – | – | – | – | – | – | – | –
O=c1c(-c2ccccc2)c(SCCO)n(-c2ccccc2)c(=S)n1-c1ccccc1 | > 100 µM | > 100 µM | > 100 µM | – | > 100 µM | > 100 µM | > 100 µM | > 100 µM | > 100 µM | – | > 100 µM | – | – | – | – | – | – | – | – | –
COc1ccc(OC)c(SC(CC(=O)c2ccccc2)c2ccccc2)c1 (stereo unspecified) | 91.7 µM | 28.5 µM | > 100 µM | – | 31.9 µM | 28.7 µM | 40.3 µM | 32.7 µM | 24.7 µM | – | 26.7 µM | – | – | – | – | – | – | – | – | –
COc1ccc2[nH]c(O)c(/C=c3/cc4c(c(-c5ccc(F)c(OC)c5)n3)=Nc3ccccc3-4)c2c1 | 19.3 µM | 36.9 µM | 10.2 µM | – | 33.1 µM | 22 µM | 26.2 µM | 6.95 µM | 18.8 µM | – | 6.01 µM | 4.37 µM | 18.2 µM | 3.16 µM | 2.39 µM | 16.4 µM | 3.07 µM | 11.3 µM | 2.91 µM | 3.86 µM
COc1cccc(N[C@@H]2c3cc4c(cc3C(c3cc(OC)c(O)c(OC)c3)[C@H]3C(=O)OCC32)OCO4)c1 (stereo partly specified) | 2.14 µM | 2.12 µM | 14.1 µM | > 29.4 µM | 2.05 µM | 3.04 µM | 17.9 µM | – | 9.78 µM | 23.9 µM | – | – | – | – | – | – | – | – | – | –
C/C(=N\Nc1nc2ccccc2n1C)c1cc2ccccc2cn1 | 27.1 µM | 12.5 µM | > 100 µM | – | 2.22 µM | 12.4 µM | 0.761 µM | 6.86 µM | 5.03 µM | – | 9.89 µM | – | – | – | – | – | – | – | – | –
CCOP(=O)(O)CN1CCNCCN(CP(=O)(O)OCC)CCNCC1 | > 100 µM | > 100 µM | > 100 µM | – | > 100 µM | > 100 µM | > 100 µM | > 100 µM | > 100 µM | – | > 100 µM | – | – | – | – | – | – | – | – | –
CN1CC2=C(NC(=S)NC2c2ccccc2)/C(=C/c2ccccc2)C1 (stereo unspecified) | > 100 µM | > 100 µM | > 100 µM | – | > 100 µM | 74.1 µM | 61.8 µM | > 100 µM | > 100 µM | – | > 100 µM | – | – | – | – | – | – | – | – | –
